# Source: ChEMBL document CHEMBL4609980, “Identification of antimalarial leads with dual falcipain-2 and falcipain-3 inhibitory activity” (Bioorg Med Chem, 2020)
# Active and inactive are the calls of the source. The calls are words filed in the database; no cut-off is given here.
# Columns and labels:
# [1] = biological target: T1, Falcipain 2 (Plasmodium falciparum) (UniProt Q9N6S8); test: Inhibition of recombinant Plasmodium falciparum falcipain-2 expressed in bacterial expression system using ZFR-AMC as substrate at 100 uM measured for 30 mins by fluorimetric assay relative to control
# T1 sequence (whole entry): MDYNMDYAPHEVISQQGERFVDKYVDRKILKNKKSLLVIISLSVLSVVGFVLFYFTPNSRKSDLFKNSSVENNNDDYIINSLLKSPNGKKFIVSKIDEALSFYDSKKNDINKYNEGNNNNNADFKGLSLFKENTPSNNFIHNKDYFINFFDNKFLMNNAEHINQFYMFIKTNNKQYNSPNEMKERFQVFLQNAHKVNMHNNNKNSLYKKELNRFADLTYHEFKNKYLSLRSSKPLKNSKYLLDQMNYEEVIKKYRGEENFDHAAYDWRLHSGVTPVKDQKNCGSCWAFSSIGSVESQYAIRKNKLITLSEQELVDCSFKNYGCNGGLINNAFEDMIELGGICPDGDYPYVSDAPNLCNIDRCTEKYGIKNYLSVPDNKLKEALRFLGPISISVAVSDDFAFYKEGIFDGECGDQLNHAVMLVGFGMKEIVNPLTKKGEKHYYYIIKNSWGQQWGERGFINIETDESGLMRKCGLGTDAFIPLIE
# [2] = biological target: T2, Cysteine protease falcipain-3 (Plasmodium falciparum) (UniProt Q9NAW4); test: Inhibition of recombinant Plasmodium falciparum falcipain-3 expressed in bacterial expression system using ZFR-AMC as substrate at 100 uM measured for 30 mins by fluorimetric assay relative to control
# T2 sequence (whole entry): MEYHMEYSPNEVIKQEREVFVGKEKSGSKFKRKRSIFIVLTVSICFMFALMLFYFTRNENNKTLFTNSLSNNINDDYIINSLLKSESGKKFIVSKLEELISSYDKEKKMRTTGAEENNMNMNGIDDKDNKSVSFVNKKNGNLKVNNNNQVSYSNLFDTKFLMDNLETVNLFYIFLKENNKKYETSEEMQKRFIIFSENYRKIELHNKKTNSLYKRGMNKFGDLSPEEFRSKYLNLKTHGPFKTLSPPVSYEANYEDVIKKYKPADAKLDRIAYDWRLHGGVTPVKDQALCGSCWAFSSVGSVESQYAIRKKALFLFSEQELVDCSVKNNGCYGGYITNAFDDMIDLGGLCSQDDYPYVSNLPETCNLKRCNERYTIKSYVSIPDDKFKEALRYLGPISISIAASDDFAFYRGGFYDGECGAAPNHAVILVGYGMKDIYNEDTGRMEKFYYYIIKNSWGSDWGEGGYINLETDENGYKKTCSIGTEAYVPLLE
# [3] = tested on: Plasmodium falciparum; test: Antimalarial activity against Plasmodium falciparum 3D7 infected in human erythrocytes assessed as increase in arrest of ring stage at 100 uM incubated for 46 hrs by giemsa staining based light microscopy; type: functional, organism-based
# [4] = tested on: Plasmodium falciparum; test: Antimalarial activity against Plasmodium falciparum 3D7 infected in human erythrocytes assessed as increase in arrest of ring stage at 100 uM measured after 46 hrs by giemsa staining based light microscopy; type: functional, organism-based
# [5] = biological target: T3, Falcipain 2 (Plasmodium falciparum, UniProt Q9N6S8); test: Inhibition of recombinant Plasmodium falciparum falcipain-2 expressed in bacterial expression system using ZFR-AMC as substrate measured for 30 mins by fluorimetric assay
# T3 sequence (Q9N6S8 whole entry): T1 sequence (whole entry)
# [6] = biological target: T4, Cysteine protease falcipain-3 (Plasmodium falciparum, UniProt Q9NAW4); test: Inhibition of recombinant Plasmodium falciparum falcipain-3 expressed in bacterial expression system using ZFR-AMC as substrate measured for 30 mins by fluorimetric assay
# T4 sequence (Q9NAW4 whole entry): T2 sequence (whole entry)
# [7] = tested on: Plasmodium falciparum; test: Antimalarial activity against Plasmodium falciparum 3D7 infected in human erythrocytes assessed as increase in arrest of ring stage at 100 uM incubated for 54 hrs by giemsa staining based light microscopy relative to control; type: functional
# [8] = tested on: Plasmodium falciparum; test: Antimalarial activity against Plasmodium falciparum 3D7 infected in human erythrocytes assessed as morphological abnormalities at 10 uM incubated for 54 hrs by giemsa staining based light microscopy; type: functional, organism-based
# [9] = tested on: Plasmodium falciparum; test: Antimalarial activity against Plasmodium falciparum 3D7 infected in human erythrocytes assessed as food-vacoules abnormalities at 10 uM incubated for 54 hrs by giemsa staining based light microscopy; type: functional, organism-based
inhibition [1] [%],inhibition [2] [%],SMILES,also measured
22,69,O=C(CN1CCC(c2ccccc2)C1)NC1CCC2(CC1)OCCO2 (stereo unspecified),–
46,50,O=C(Nc1ccc([C@@H]2C=c3ccccc3=N2)cc1)[C@@H]1CCCN1C1CCOCC1,–
53,61,CN1CCCc2cc(CCNC(=O)C(=O)Nc3ccc4c(c3)OCO4)ccc21,Activity [3]: Active; Activity [4]: inactive; IC50 [5]: 14.7 µM; IC50 [6]: 9.98 µM
19,6,Cc1ccc(NCC(=O)NC2CC2)cc1S(=O)(=O)C1CCCCC1,–
41,9,Cc1ccc(NC(=O)CN2CCC[C@H](c3nc4ccccc4o3)C2)cc1C,–
39,15,O=C(CNC(=O)N1CCN(Cc2ccccc2)CC1)NC1=CC2=CC=N[C@@H]2C=C1,–
43,26,CCc1ccc(NC(=O)CN2CCN(c3nc4ccccc4s3)CC2)cc1,–
44,17,O=C1C[C@H](C(=O)Nc2ccccc2)NC(N2CCN(Cc3ccccc3)CC2)=N1,–
49,39,O=C(CCC1=CC(=O)C2C(=N1)SC1=C2CCCC1)NC1CCCCNC1=O (stereo unspecified),–
42,41,O=C1CCc2cc(CNC(=O)Cn3ncc4ccccc4c3=O)ccc2C1,–

# The next lines start with the molecule.
SMILES,inhibition [1] [%],inhibition [2] [%],also measured
O=C(NCCCNC(=O)c1cc2ccccc2[nH]1)c1ccc(-c2ccccc2)cc1,51,62,Activity [7]: 100%; IC50 [5]: 12.2 µM; IC50 [6]: 8.56 µM
O=C(NCCCn1nc2n(c1=O)CCCC2)c1cc2c(cc1O)CCCC2,42,15,–
CC(C)C[C@H](NC(=O)[C@H]1O[C@@H]1C(=O)O)C(=O)NCCCCN=C(N)N,–,–,Activity [8]: Active; Activity [9]: Active
O=C(CN1CCC(C2N=c3ccccc3=N2)CC1)Nc1cccc2ccccc12,47,49,–
O=C(CN1CCN(C2=NCCC=N2)CC1)Nc1cccc2ccccc12,19,21,–
O=C1CN(CC(=O)NC2CCOc3ccccc32)CCN1 (stereo unspecified),25,25,–
Cc1cccc(O)c1OC1CCN(CC(=O)Nc2ccc(CN3CCOCC3)cc2)CC1,43,25,–
